From patent US20110027352A1, “COMPOUNDS FOR USE IN THE TREATMENT OF NEUROPATHIC PAIN” (priority 2008, published 2011)
Entries after “also recorded” stand apart in the source; their conditions may differ.

Assays:
[1] = test system: mechanical allodynia of the neuropathic (“Cuff”) mice; test: Sciatic nerve cuff murine model of neuropathic pain, von Frey filament test in neuropathic (Cuff) mice; format: in vivo, C57BL/6J mice; conditions: for Mechanical allodynia of Cuff mice after the first (acute) injection: mice neuropathic for 2 weeks; for Allodynia in neuropathic (Cuff) animals after chronic treatment, recapitulation (FIG. 25): chronic treatment (14-21 days), doses and modes as in examples 7, 9 to 14 and 20 (formoterol 0.5 mg/kg, terbutalin 5 mg/kg); for Effect on neuropathic allodynia acutely after the first injection, summary statement: first injection of the agonist, doses as in examples 7, 9, 11 and 15
Description: (§1) The experiments were carried out on adult male mice. The pharmacological experiments were carried out using C57BL/6J mice (3-to-6 weeks old on their arrival, Charles River, L'Arbresle, France).
All the experiments began with mice that were 6-to-9 weeks old. […] For all the other experiments, the mice were combined at four to five per cage and kept under alternating 12-hour day/night (light at 6 am) with food and water ad libitum.
(§2) The model is obtained by placing a polyethylene cuff around the main branch of the right sciatic nerve of each mouse. Before any surgical procedure, the mice were assigned to the various experimental groups in such a way that the baseline mechanical nociception threshold and the weight are equivalent between the various groups. The surgical procedure was carried out under ketamin-xylazin anesthesia (ketamin: 17 mg/ml, xylazin 2.5 mg/ml, intraperitoneal injection in a proportion of 4 ml/kg) (limited liability company Centravet, Taden, France). The common branch of the sciatic nerve was exposed and a section 2 mm long of a hollow PE-20 polyethylene tube (“Harvard Apparatus”, Les Ulis, France) was placed around said branch (“Cuff” group). […] Control mice were operated on according to the same procedure, but without placing the cuff (“Sham” group). The experimental groups are made up of at least 4 mice for each control (“Sham”) group and at least 5 mice for each neuropathic (“Cuff”) group.
(§3) The mice are placed in transparent Plexiglas (registered trademark) boxes (7 cm×9 cm×7 cm) placed on a raised grid. Before the test, the mice are allowed to become accustomed to this device for 15 minutes. During the test, the von Frey filaments are applied to the plantar surface of each back foot according to ascending forces (from 0.16 g up to a foot withdrawal response, or up to a maximum of 10 g). Each filament is tested 5 times per foot and the threshold is defined by the presence of 3 or more withdrawals observed over the 5 tests. Before the surgery as described above, the animals were pretested in order to establish their baseline nociceptive response. During the chronic treatment experiments and those of repeated injection of antagonists, the tests are carried out in the mornings before the first injection of the day. During the acute agonist injection experiments, the tests are carried out after the first injection according to the time course as presented on the graphs.
The surgery for installing the cuff corresponds to day 0.
(§4) For all the treatments carried out by injection, said injections were given intraperitoneally in a volume of 50 microL per 10 mg of body weight.

[2] = test system: nociceptive sensitivity of the mice of the control (“Sham”) group; test: von Frey filament test in control (Sham) mice operated without cuff; format: in vivo, C57BL/6J mice; conditions: for Sensitivity of control (Sham) animals under chronic treatment, recapitulation (FIG. 26): chronic treatment (14-21 days), doses and modes as in examples 2, 7, 9 to 14 and 20 (formoterol 0.5 mg/kg, terbutalin 5 mg/kg); for Nociceptive sensitivity of control (Sham) mice under chronic treatment: repeated injections, doses and modes as for the Cuff mice of the same example
Description: as §1, §2, §3, §4

[3] = test system: mechanical allodynia of the neuropathic (“Cuff”) mice; conditions: as previously published (Benbouzid et al. 2008); cited from earlier work
[4] = test system: mechanical allodynia of the neuropathic (“Cuff”) mice; test: Cotreatment with adrenoreceptor antagonists in Cuff mice relieved by chronic nortriptylin or beta-agonist treatment, von Frey test; format: in vivo, C57BL/6J mice; conditions: for Effect of coadministered beta2-adrenoreceptor antagonist ICI 118,551 on the allodynia of agonist-treated Cuff mice: ICI 118,551 2 mg/kg intraperitoneal, after 3 weeks of agonist treatment (doses as in chronic treatment; terbutalin 0.5 mg/kg), 3 to 6 days of cotreatment; for Effect of ICI 118,551 on the therapeutic effect of chronic agonist treatment on neuropathic allodynia, summary statement: chronic treatment with the agonist plus beta2-adrenoreceptor antagonist ICI 118,551
Description: as §2
For the tests, in the examples which follow, the pressure is exerted on the foot of the mice by means of von Frey filaments (Bioseb, Chaville, France) (Benbouzid, M. et al. Biological Psychiatry 63:633-636 (2008) (10) and Benbouzid, M. et al. European Journal of Pain 12:591-599 (2008) (11)). The mice are placed in transparent Plexiglas (registered trademark) boxes (7 cm×9 cm×7 cm) placed on a raised grid. Before the test, the mice are allowed to become accustomed to this device for 15 minutes. During the test, the von Frey filaments are applied to the plantar surface of each back foot according to ascending forces (from 0.16 g up to a foot withdrawal response, or up to a maximum of 10 g). Each filament is tested 5 times per foot and the threshold is defined by the presence of 3 or more withdrawals observed over the 5 tests. Before the surgery as described above, the animals were pretested in order to establish their baseline nociceptive response. During the chronic treatment experiments and those of repeated injection of antagonists, the tests are carried out in the mornings before the first injection of the day. During the acute agonist injection experiments, the tests are carried out after the first injection according to the time course as presented on the graphs.
The procedure for intrathecal (i.t.) injection of the beta2-adrenoreceptor antagonist ICI 118,551 (3 μg in 10 μl) is carried out under halothane gas anesthesia according to the protocol described by Inoue et al. (Nature Medicine 2004, 10:712-718 (12)). These i.t. injections are carried out just before the intraperitoneal injection of salbutamol (2 mg/kg, i.p.). A 27-gauge injection needle connected to a 50 μl Hamilton syringe is inserted, between the L5 and L6 vertebrae, into the subarachnoid space. The correct placement of the needle is verified by the presence of a reflex movement of the tail of the mouse. The mice are pretested before this cotreatment procedure, and then cotreated twice (a morning and the corresponding evening) before being retested the following morning for their mechanical nociceptive sensitivity.

CNCCC=C1c2ccccc2CCc2ccccc21 [nortriptylin]
Mechanical allodynia in neuropathic (Cuff) mice after chronic treatment ([1]; 5 mg/kg, injection twice a day (morning and evening)): ineffective initially, but subsequently causes the allodynia to completely disappear
Sensitivity of control (Sham) animals under chronic treatment, recapitulation (FIG. 26) [2]: does not impair the sensitivity of control animals
Nociceptive sensitivity of control (Sham) mice under chronic treatment [2]: not affected
Sensitivity of control (Sham) animals, dose-response recapitulation (FIG. 21) ([2]; terbutalin 0.125, 0.25, 0.5 or 5 mg/kg, nortriptylin 5 mg/kg, twice a day, 3 weeks): does not impair the sensitivity of control animals
Sensitivity of the neuropathic mouse model to chronic treatment with a tricyclic antidepressant [3]: sensitive to chronic treatment

CC(C)(C)NCC(O)c1cc(Cl)c(N)c(Cl)c1 (stereo not drawn) [clenbuterol]
Mechanical allodynia of Cuff mice after the first (acute) injection ([1]; 0.3 mg/kg, intraperitoneal): has no effect on the mechanical allodynia
Mechanical allodynia in neuropathic (Cuff) mice after chronic treatment ([1]; 0.3 mg/kg, intraperitoneal, twice a day): completely suppresses the mechanical allodynia
Allodynia in neuropathic (Cuff) animals after chronic treatment, recapitulation (FIG. 25) [1]: relieve this allodynia; also recorded: causes the neuropathic pain, for example the neuropathic allodynia, to completely disappear
Effect on neuropathic allodynia acutely after the first injection, summary statement [1]: not observed acutely after the first injection
Sensitivity of control (Sham) animals under chronic treatment, recapitulation (FIG. 26) [2]: do not affect the control animals; also recorded: does not aspecifically affect the sensitivity of the control animals
Control (Sham) mice after the first administration ([2]; clenbuterol 0.3 mg/kg, intraperitoneal, first injection): unaffected
Nociceptive sensitivity of control (Sham) mice under chronic treatment [2]: not affected
Effect of coadministered beta2-adrenoreceptor antagonist ICI 118,551 on the allodynia of agonist-treated Cuff mice [4]: causes the allodynia to reappear
Effect of ICI 118,551 on the therapeutic effect of chronic agonist treatment on neuropathic allodynia, summary statement [4]: blocks the therapeutic effect

CC(Cc1ccc(O)cc1)NCC(O)c1cc(O)cc(O)c1 (stereo not drawn) [fenoterol]
Mechanical allodynia of Cuff mice after the first (acute) injection ([1]; 0.7 mg/kg, intraperitoneal): has no effect on the mechanical allodynia
Mechanical allodynia in neuropathic (Cuff) mice after chronic treatment ([1]; 0.7 mg/kg, twice a day): completely suppresses the mechanical allodynia
Allodynia in neuropathic (Cuff) animals after chronic treatment, recapitulation (FIG. 25) [1]: relieve this allodynia; also recorded: causes the neuropathic pain, for example the neuropathic allodynia, to completely disappear
Effect on neuropathic allodynia acutely after the first injection, summary statement [1]: not observed acutely after the first injection
Sensitivity of control (Sham) animals under chronic treatment, recapitulation (FIG. 26) [2]: do not affect the control animals; also recorded: does not aspecifically affect the sensitivity of the control animals
Nociceptive sensitivity of control (Sham) mice under chronic treatment [2]: not affected
Effect of coadministered beta2-adrenoreceptor antagonist ICI 118,551 on the allodynia of agonist-treated Cuff mice [4]: causes the allodynia to reappear
Effect of ICI 118,551 on the therapeutic effect of chronic agonist treatment on neuropathic allodynia, summary statement [4]: blocks the therapeutic effect

CC(C)(C)NCC(O)c1ccc(O)c(CO)c1 (stereo not drawn) [salbutamol]
Mechanical allodynia in neuropathic (Cuff) mice after chronic treatment ([1]; 2 mg/kg, injection twice a day): relieves the mechanical allodynia
Mechanical allodynia of Cuff mice after the first (acute) injection ([1]; 2 mg/kg, intraperitoneal): has no effect on the mechanical allodynia
Allodynia in neuropathic (Cuff) animals after chronic treatment, recapitulation (FIG. 25) [1]: relieve this allodynia; also recorded: causes the neuropathic pain, for example the neuropathic allodynia, to completely disappear
Effect on neuropathic allodynia acutely after the first injection, summary statement [1]: not observed acutely after the first injection
Mechanical allodynia in neuropathic (Cuff) mice after chronic treatment by inhalation ([1]; salbutamol sulfate inhaler (Ventolin), twice a day, 100 μg per session for 2 weeks, then inhaler pressed 3 times per session for 9 days): relieves the mechanical allodynia; also recorded: relieves neuropathic allodynia
Sensitivity of control (Sham) animals under chronic treatment, recapitulation (FIG. 26) [2]: do not affect the control animals; also recorded: does not aspecifically affect the sensitivity of the control animals
Nociceptive sensitivity of control (Sham) mice under chronic treatment [2]: not affected
Effect of intrathecal beta2-adrenoreceptor antagonist ICI 118,551 on the allodynia of agonist-treated Cuff mice ([4]; ICI 118,551 3 μg in 10 μl intrathecal before each of 2 injections of salbutamol 2 mg/kg i.p., after at least 3 weeks of salbutamol): causes the allodynia to reappear; also recorded: blocks the therapeutic effect
Effect of coadministered beta2-adrenoreceptor antagonist ICI 118,551 on the allodynia of agonist-treated Cuff mice [4]: causes the allodynia to reappear
Effect of ICI 118,551 on the therapeutic effect of chronic agonist treatment on neuropathic allodynia, summary statement [4]: blocks the therapeutic effect

OCc1cc(C(O)CNCCCCCCOCCCCc2ccccc2)ccc1O (stereo not drawn) [salmeterol]
Mechanical allodynia in neuropathic (Cuff) mice after chronic treatment ([1]; 1 mg/kg, injection twice a day): completely suppresses the mechanical allodynia
Mechanical allodynia of Cuff mice after the first (acute) injection ([1]; 1 mg/kg, intraperitoneal): has no effect on the mechanical allodynia
Allodynia in neuropathic (Cuff) animals after chronic treatment, recapitulation (FIG. 25) [1]: relieve this allodynia; also recorded: causes the neuropathic pain, for example the neuropathic allodynia, to completely disappear
Effect on neuropathic allodynia acutely after the first injection, summary statement [1]: not observed acutely after the first injection
Mechanical allodynia in neuropathic (Cuff) mice after chronic treatment by inhalation ([1]; salmeterol xinafoate inhaler (Serevent), twice a day, 50 μg per session for 2 weeks, then inhaler pressed four times per session for 9 days): relieves the mechanical allodynia; also recorded: relieves neuropathic allodynia
Sensitivity of control (Sham) animals under chronic treatment, recapitulation (FIG. 26) [2]: do not affect the control animals; also recorded: does not aspecifically affect the sensitivity of the control animals
Nociceptive sensitivity of control (Sham) mice under chronic treatment [2]: not affected
Effect of coadministered beta2-adrenoreceptor antagonist ICI 118,551 on the allodynia of agonist-treated Cuff mice [4]: causes the allodynia to reappear
Effect of ICI 118,551 on the therapeutic effect of chronic agonist treatment on neuropathic allodynia, summary statement [4]: blocks the therapeutic effect

CN(C)CCC=C1c2ccccc2CCc2ccccc21 [amitriptylin]
Sensitivity of the neuropathic mouse model to chronic treatment with a tricyclic antidepressant [3]: sensitive to chronic treatment
